Test results from patent US4933368A, “N-phenylbenzamide derivatives” (Godecke Aktiengesellschaft, priority 1983, dated 1990).
“Also recorded” adds a separate entry of the source. Where two headings read alike, the source gives them in different places.

Columns and labels:
Distribution coefficient = format: physicochemical; details: n-octanol/water pH 7.4/20° C.; read-out: log VK (distribution coefficient)
Source text: This is also the case with intragastric application, as shown by certain pharmacological effects.

humoral immunoresistance = test: Susceptibility to bacterial infections in treated rats; format: in vivo; details: sustained period, high doses
Source text: An inhibition of the humoral immune system (antibody-producing B-lymphocytes) by the substances of the invention and a possibility of therapy resulting from this, e.g., for autoaggression diseases, which are characterized by an increase in antibody production against the body's own tissues, can currently only be concluded indirectly.

L5222 leukemia = L5222 leukemia (CCLS test); format: in vivo, mice; details: IP PO
Source text: (§1) The two types of assays used were the standard CCTM test for solid tumors and the CCLS test for leukemia.
(§2) The CCLS assay assesses the antitumor activity of a test agent by measurement of the treatment-induced increase in host lifespan. Only rapidly growing tumors that kill their respective hosts in less than 30 days are appropriate for life span assays.
Test animals are appropriate Fl hybrid mice derived for the inbred strain of tumor origin. After the required mice are randomized, they receive implants (IP, IV, IC, IM, or SC) of appropriately diluted ascites fluid or dilutions of tumor brei on Day 0. […]
(§3) Test agents are dissolved or suspended in any of several vehicles and are administered by the routes and treatment schedules specified on the test protocol. All animals are monitored for signs of acute toxicity and side effects.
Survival is checked daily for each test group. Both the number dead and the number living are counted and recorded. […] Clinical signs are observed and recorded for all test groups. Group body weights are recorded at least weekly as directed in the specific test protocol. […]
(§4) Td=tumor volume doubling time (days), calculated from the slope of a log-linear least square fit of the survival time vs inoculum curve for titrated inocula of tumor cells in untreated mice.
MLS=median life span, calculated by a method appropriate for grouped observations. […]

allogeneic skin grafts [1] = test: Skin graft survival test in rhesus monkeys; format: in vivo, rhesus monkeys (Macaca mulatta); details: for lengthening of the normal graft survival time: 10 mg/kg i.g. 1× daily for 10 days, vs normal survival stated as ten days
Experimental: Preparation: Freshly prepared before each
Route of Intragastric via stomach tube,
administration: suspended in 0.8% Methocel
Altogether four allogeneic skin grafts from two different donor animals are transferred crosswise to one unrelated receiving animal. At first the grafts are removed under ketamine narcosis from the shaven and cleaned stomach skin of the donor animals and freed of any fat attached. The four graft receptor sites are prepared on the shaven and cleaned back of the receiving animal under ketamine narcosis by removing suitably sized pieces of skin. Subsequent to successful hemostasis, the grafts are spread out on the graft receptor sites and sewn to the edges of the wound. The wound is covered with a suitable dressing material and this is fixed with an elastic bandage. The bandage is opened on the 5th, 7th, and 9th day after grafting and the function of the grafts examined. On the 9th day the bandage is no longer replaced. The graft function is then controlled daily until rejection has occurred.
Controls are dispensed within this trial on primates for ethical reasons. Comparisons are drawn with the normal survival of allogeneic skin grafts or historic controls, stated as ten days.

allogeneic skin grafts [2] = test: Trial I, skin graft survival test in rats (recipient Long Evans, donor Lewis), vs azathioprine + methylprednisolone; format: in vivo
Experimental: Route of Intragastric via stomach tube,
suspended in 0.8% Methocel
(§11) Volume: 0.01 ml per gram body weight and dose
Trial I/from Day -3 before grafting to Day +6
Trial I/10 mg/kg over 6 days, afterwards 5 mg/kg
(§12) Two allogeneic skin grafts from a donor rat are transferred to a receiving rat from an unrelated inbred strain. The panniculus carnosus attached to the graft may either be removed by dissection (suprapannicular graft) or be left on the graft (subpannicular graft). Grafting is conducted on Day 0 under light ether narcosis subsequent to shaving and cleanup of the grafting sites. The grafts are fixed on the graft receptor sites by dressing with a suitable bandage. From Day +9 a protective colar is placed on the animals, the bandage removed, and the status of the grafts daily controlled. The assessment of the graft function is conducted by means of a graduation scale, which allows for differentiation of rejection corresponding to a three-degree of severity score. The trial ends on the day when 50% of the animals of one group have rejected both grafts. The lengthening of the graft survival time in comparison to the controls is determined in days.
Recipient: Long Evans .male., Donor: Lewis .male.. Two suprapannicular grafts were transferred from a donor to a recipient.

L1210 leukemia = format: in vivo, CD2 mice; details: for Mean Survival Time: controls 8; for % Increase in Mean Survival Time (toxic death): mouse, in vivo, po
Source text: (§5) Preparation: As suspension freshly prepared
(§6) before each administration
(§7) Route of Oral, suspended in 0.8%
(§8) administration: Methocel
(§9) Volume: 0.01 per gram body weight
(§10) daily for 9 days, if not
L 1210/Rij adaptation of L1210 leukemia in CD2 mice (C57B1×DBA2,Fl hybrid). On the day before administration of the substance 10^5 leukemic cells are inoculated intraperitoneally. The cages are controlled 2×X daily for dead animals. The terminal point is the mean survival of five mice/dosage compared with ten untreated controls.

allogeneic skin grafts [3] = test: Trial II, skin graft survival test in rats (recipient Osborne Mendel, donor Lewis), vs azathioprine; format: in vivo; details: far smaller quantities of Substance A
Experimental: Route of Intragastric via stomach tube,
suspended in 0.8% Methocel
as §11
Trial II/from Day -2 before grafting to Day +9
Trial II/4-8 mg/kg daily increasing over 12 days
as §12
Recipient: Osborne Mendel .male., Donor: Lewis .male.. Two suprapannicular grafts were transferred from a donor to a recipient.

[4] = test system: murine tumors and human tumor xenografts; test: Antineoplastic activity in tumor-carrying animals, general statements; format: in vivo, mice
BN leukemia = BN leukemia (CCLS test); format: in vivo, mice; details: for % T/C: IV PO
Source text: as §1, §2
Test animals are appropriate Fl hybrid mice derived for the inbred strain of tumor origin. After the required mice are randomized, they receive implants (IP, IV, IC, IM, or SC) of appropriately diluted ascites fluid or dilutions of tumor brei on Day 0. A sample from the final inocula is incubated in thioglycolate media as a check for gross contamination of the tumor material. After tumor inoculation, the test mice are rerandomized and distributed to test groups as per the specific test protocol.
as §3
Survival is checked daily for each test group. Both the number dead and the number living are counted and recorded. All dead mice are autopsied to ascertain the probably cause of death (drug or tumor). Clinical signs are observed and recorded for all test groups. Group body weights are recorded at least weekly as directed in the specific test protocol.
For most life span assays, any animal surviving more than 60 days is sacrificed and autopsied to determine the tumor burden present. It is possible that specific protocols involving unusual tumors or routes of tumor implantation will call for longer termination dates.
as §4
MLS=median life span, calculated by a method appropriate for grouped observations.
NOTE: Some adjustments in these calculations are made to make comparisons with the appropriate control cage more accurate. The slope of the titration curve (least squares fit) is used to calculate the Td for the tumor, but the life span increases of the treated animals are based only on the MLS of the control cage with the same initial inoculum (not on the least square approximation from the titration curve). This in theory reduces any effects from dilution, etc.
All tumor-free survivors (cures) are excluded from the calculation of MLS and cell kill values. Thus all calculated end points represent the response of the treatment failures.

Lewis Lung Tumor = test: Lewis Lung Tumor, growth retardation in mice; format: in vivo, BCBA mice; details: for Surviving Animals: n = 5
Experimental: as §5, §6, §7, §8, §9, §10
Lewis Lung Tumor in BCBA mice. The procedure is the same as with osteosarcoma. The volume of the tumor was determined here at 800 mm^3 (=product of the diameters in three dimensions).

in vivo = details: mouse, po
[5] = intragastric / oral, vs untreated control

Nc1ccc(C(=O)Nc2ccccc2N)cc1 [Substance A, 4-Amino-N-(2'-aminophenyl)-benzamide]
logD (Distribution coefficient): 2.2 | susceptibility to bacterial infections (humoral immunoresistance): increased susceptibility to bacterial infections | % T/C (L5222 leukemia; Days 1, 4, 7, 48 mg/kg): 150% | % T/C (L5222 leukemia; Days 1-9, 15 mg/kg): 169% | immunosuppressive action (allogeneic skin grafts [1]; rhesus monkeys, 10 mg/kg i.g., 10 mg/kg): distinct immunosuppressive action; also recorded: markedly clear | lengthening of the normal graft survival time (allogeneic skin grafts [1]; test animal YL): four to five | lengthening of the normal graft survival time (allogeneic skin grafts [1]; test animal ZE): six to seven | effect compared with standard medication (allogeneic skin grafts [2]; Trial I, vs azathioprine and methylprednisolone): superior to an immunosuppressive standard medication comprising azathioprine and methylprednisolone | effect compared with comparison medication (allogeneic skin grafts [2]; rats, both trials, far smaller substance quantities): at least equally as effective as the comparison medication | Mean Survival Time (L1210 leukemia; 4 × 180 mg/kg PO, n = 5): 5 days | Mean Survival Time (L1210 leukemia; 4 × 240 mg/kg PO, n = 5): 5 days | Mean Survival Time (L1210 leukemia; 7 × 120 mg/kg PO, n = 5): 6 days | % Increase in Mean Survival Time (L1210 leukemia; 9 × 60 mg/kg PO, n = 5): 38% | Mean Survival Time (L1210 leukemia; 9 × 60 mg/kg PO, n = 5): 11 days | assessment of activity (L1210 leukemia; moderate dosage): significant activity | % Increase in Mean Survival Time (toxic death) (L1210 leukemia; 120 mg/kg): toxic death | % Increase in Mean Survival Time (toxic death) (L1210 leukemia; 180 mg/kg): toxic death | % Increase in Mean Survival Time (toxic death) (L1210 leukemia; 240 mg/kg): toxic death | effect compared with standard azathioprine (allogeneic skin grafts [3]): equally effective as the immunosuppressive standard azathioprine | tumor regression late in an extended treatment regimen ([4]; after just two days' rest): partial regression of tumors | average survival time of tumor-carrying mice [4, 5]: significant increase in the average survival time | retardation in tumor growth [4, 5]: distinct retardation in the growth of the tumor | schedule dependence of activity ([4]; mouse, in vivo): schedule-dependent, with once daily treatment superior to either more highly fractionated or to intermittent regimens | cures and cell kills ([4]; oral, refractory tumor models in mice): significant number of cures and cell kills | anticancer activity, overall ([4]; spectrum of preclinical tumor models): significant activity against a spectrum of preclinical tumor models | anticancer activity (BN leukemia; BN leukemia): significant anticancer activity has been demonstrated and confirmed | % T/C (BN leukemia; Days 1-5, 20 mg/kg): 356% | % T/C (BN leukemia; Days 1-5, 30 mg/kg): 430% | % T/C (BN leukemia; Days 7-11, 14-18, 20 mg/kg): 335% | % T/C (BN leukemia; Days 7-11, 14-18, 21-25, 20 mg/kg): 474% | % T/C (BN leukemia; Days 7-11, 14-18, 21-25, 28-32, 35-39, 8 mg/kg): 343% | Surviving Animals (Lewis Lung Tumor; 1 × 240 mg/kg PO): 5/5 | Retardation in Growth of Tumor (Days) (Lewis Lung Tumor; 1 × 240 mg/kg PO, p = 0,018): 3,1 Days | Retardation in Growth of Tumor (toxic death) (Lewis Lung Tumor; 2 × 180 mg/kg PO): toxic death | Surviving Animals (Lewis Lung Tumor; 2 × 180 mg/kg PO): 0/5 | Retardation in Growth of Tumor (toxic death) (Lewis Lung Tumor; 4 × 120 mg/kg PO): toxic death | Surviving Animals (Lewis Lung Tumor; 4 × 120 mg/kg PO): 0/5 | Surviving Animals (Lewis Lung Tumor; 9 × 60 mg/kg IP, controls 5/5): 5/5 | Retardation in Growth of Tumor (Days) (Lewis Lung Tumor; 9 × 60 mg/kg IP, p = 0,061): 3,8 Days | assessment of activity (Lewis Lung Tumor; mouse, in vivo): moderate activity | LD50 at 168 h (in vivo): 625 mg/kg
